Experimental data as given in patent US11623869B2 (UNIVERSIDADE ESTADUAL DE CAMPINAS—UNICAMP, priority 2017, dated 2023).

System: non-muscle invasive bladder cancer (CBNMI)
Experiment: Adjuvancy of intravesical MRB-CFI-1 and systemic cisplatin in NMIBC rats, histopathology
Format: in vivo, Fischer 344 female rats
Description: The protocol for use of animals in research was approved by the Ethics Committee on the Use of Animals (CEUA)—UNICAMP (protocol number: 4324-1).

[1] = MNU rats, MRB-CFI-1 intravesical 20 mg/kg 6 weeks and/or cisplatin i.p. […] weekly 4 weeks, n = 7

N.N.[Cl][Pt][Cl] [cisplatin]
decrease in the progression of urothelial neoplastic lesions, percentage of animals (MNU rats, same treatments): 14.28%
Carcinoma in situ (Ptis), percentage of animals [1]: 14.28%
Papillary carcinoma (pTa), percentage of animals [1]: 57.14%
Papilliferous hyperplasia, percentage of animals [1]: 14.28%
Urothelial carcinoma with lamina propria invasion (pT1), percentage of animals [1]: 14.28%
Carcinoma in situ (Ptis), number of animals (same treatments, of n = 7): 1
Papillary carcinoma (pTa), number of animals (same treatments, of n = 7): 4
Papilliferous hyperplasia, number of animals (same treatments, of n = 7): 1
Urothelial carcinoma with lamina propria invasion (pT1), number of animals (same treatments, of n = 7): 1
